In patent US8822517B2, “Arylosulfonamides for the treatment of CNS diseases” (Adamed SP. Z O.O., priority 2010, dated 2014):

Key:
[1] = molecular target: serotoninergic 5-HT2A receptor (Homo sapiens, UniProt P28223); assay: Binding assay 5-HT2A (h), [3H]ketanserin, HEK-293 cells; design: expressed in transfected cells; host or cells: HEK-293 cells; conditions: read-out: 5-HT2A
Summary of the method: (§1)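 Specific ligand binding was taken as total minus non-specific binding, with the latter defined in the presence of surplus unlabelled ligand. Each compound was tested at a single 1×10^−6 M concentration.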

dopaminergic D2 receptor = dopaminergic D2 receptor (Homo sapiens, UniProt P14416); assay: Binding assay D2S (h), [3H]methyl-spiperone, HEK-293 cells; design: expressed in transfected cells; host or cells: HEK-293 cells; conditions: read-out: D2 [%]
Sequence of dopaminergic D2 receptor (P14416 1-414 isoform P14416-2): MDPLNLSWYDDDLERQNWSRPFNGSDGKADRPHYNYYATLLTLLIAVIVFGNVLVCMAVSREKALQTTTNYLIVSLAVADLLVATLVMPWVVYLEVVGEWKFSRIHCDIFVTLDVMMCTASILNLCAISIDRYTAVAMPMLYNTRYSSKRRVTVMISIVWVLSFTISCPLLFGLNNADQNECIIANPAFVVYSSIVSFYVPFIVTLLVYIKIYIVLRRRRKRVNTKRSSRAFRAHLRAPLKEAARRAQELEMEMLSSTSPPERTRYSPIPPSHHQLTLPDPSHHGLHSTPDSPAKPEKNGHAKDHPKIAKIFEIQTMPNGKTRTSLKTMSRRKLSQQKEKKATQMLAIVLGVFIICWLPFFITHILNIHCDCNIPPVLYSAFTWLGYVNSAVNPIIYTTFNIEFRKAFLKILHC
Summary of the method: as §1

[2] = molecular target: serotoninergic 5-HT7 receptor (Homo sapiens, UniProt P34969); assay: Binding assay 5-HT7 (h), [3H]LSD, CHO cells; design: expressed in transfected cells; host or cells: CHO cells; conditions: read-out: 5-HT7
Sequence of serotoninergic 5-HT7 receptor (P34969 whole entry): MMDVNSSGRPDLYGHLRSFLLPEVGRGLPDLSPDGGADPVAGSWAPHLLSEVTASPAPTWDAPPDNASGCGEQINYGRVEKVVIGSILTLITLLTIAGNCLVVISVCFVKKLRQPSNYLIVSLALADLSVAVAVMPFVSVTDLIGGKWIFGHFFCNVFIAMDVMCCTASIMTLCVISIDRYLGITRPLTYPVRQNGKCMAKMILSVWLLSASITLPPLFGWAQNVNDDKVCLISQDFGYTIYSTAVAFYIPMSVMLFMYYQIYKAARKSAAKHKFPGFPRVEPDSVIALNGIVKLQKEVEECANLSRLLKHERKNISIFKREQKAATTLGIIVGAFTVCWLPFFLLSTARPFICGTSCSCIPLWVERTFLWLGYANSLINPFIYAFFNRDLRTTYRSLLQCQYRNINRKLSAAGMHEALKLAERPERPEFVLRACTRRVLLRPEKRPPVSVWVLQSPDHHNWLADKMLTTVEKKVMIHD
Summary of the method: as §1

[3] = molecular target: T1, serotonine transporter (SERT) receptor (Homo sapiens, UniProt P31645); assay: Binding assay SERT (h), [3H]imipramine, CHO cells; conditions: read-out: SERT [%]
T1 construct: expressed in transfected cells; host or cells: CHO cells
T1 sequence (P31645 whole entry): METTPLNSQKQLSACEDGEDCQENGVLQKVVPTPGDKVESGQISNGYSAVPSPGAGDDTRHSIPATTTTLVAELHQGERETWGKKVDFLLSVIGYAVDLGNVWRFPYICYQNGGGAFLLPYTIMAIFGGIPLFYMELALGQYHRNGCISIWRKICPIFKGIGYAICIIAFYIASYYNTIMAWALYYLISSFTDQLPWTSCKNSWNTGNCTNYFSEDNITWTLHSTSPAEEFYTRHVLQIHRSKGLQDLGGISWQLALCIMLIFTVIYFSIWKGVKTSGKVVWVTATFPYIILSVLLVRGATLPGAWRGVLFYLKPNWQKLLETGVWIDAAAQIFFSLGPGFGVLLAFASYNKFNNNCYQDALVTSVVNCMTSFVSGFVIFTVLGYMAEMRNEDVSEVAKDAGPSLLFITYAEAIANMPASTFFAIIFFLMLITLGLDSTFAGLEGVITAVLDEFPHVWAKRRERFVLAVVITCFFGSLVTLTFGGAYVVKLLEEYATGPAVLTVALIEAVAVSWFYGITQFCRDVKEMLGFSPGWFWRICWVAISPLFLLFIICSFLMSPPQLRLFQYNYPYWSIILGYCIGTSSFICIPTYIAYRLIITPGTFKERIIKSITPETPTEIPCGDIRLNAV
Summary of the method: as §1

adrenergic α1 receptor = assay: Binding assay α1 (non-selective), [3H]prazosin, rat cerebral cortex; conditions: percent inhibition of control specific binding; compounds tested at 1×10^−6 M
Summary of the method: as §1

[4] = molecular target: T2, serotoninergic 5-HT1A receptor (Homo sapiens, UniProt P08908); assay: Binding assay 5-HT1A (h), [3H]8-OH-DPAT, HEK-293 cells; design: expressed in transfected cells; host or cells: HEK-293 cells; conditions: read-out: 5-HT1A
T2 sequence (P08908 1-422): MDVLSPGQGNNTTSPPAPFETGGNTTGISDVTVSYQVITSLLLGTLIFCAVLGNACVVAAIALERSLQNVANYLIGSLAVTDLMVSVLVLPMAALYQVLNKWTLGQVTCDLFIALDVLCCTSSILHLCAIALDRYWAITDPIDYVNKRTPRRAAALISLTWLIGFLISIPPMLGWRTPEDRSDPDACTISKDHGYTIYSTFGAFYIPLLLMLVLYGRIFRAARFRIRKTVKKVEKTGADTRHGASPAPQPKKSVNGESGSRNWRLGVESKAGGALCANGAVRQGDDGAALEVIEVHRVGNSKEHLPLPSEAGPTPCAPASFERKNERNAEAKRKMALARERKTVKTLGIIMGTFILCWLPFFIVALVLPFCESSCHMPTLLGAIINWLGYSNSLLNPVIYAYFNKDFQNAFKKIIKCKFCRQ
Summary of the method: as §1

dopaminergic D3 receptor = dopaminergic D3 receptor (Homo sapiens, UniProt P35462); assay: Binding assay D3 (h), [3H]methyl-spiperone, CHO cells; design: expressed in transfected cells; host or cells: CHO cells; conditions: read-out: D3 [%]
Sequence of dopaminergic D3 receptor (P35462 whole entry): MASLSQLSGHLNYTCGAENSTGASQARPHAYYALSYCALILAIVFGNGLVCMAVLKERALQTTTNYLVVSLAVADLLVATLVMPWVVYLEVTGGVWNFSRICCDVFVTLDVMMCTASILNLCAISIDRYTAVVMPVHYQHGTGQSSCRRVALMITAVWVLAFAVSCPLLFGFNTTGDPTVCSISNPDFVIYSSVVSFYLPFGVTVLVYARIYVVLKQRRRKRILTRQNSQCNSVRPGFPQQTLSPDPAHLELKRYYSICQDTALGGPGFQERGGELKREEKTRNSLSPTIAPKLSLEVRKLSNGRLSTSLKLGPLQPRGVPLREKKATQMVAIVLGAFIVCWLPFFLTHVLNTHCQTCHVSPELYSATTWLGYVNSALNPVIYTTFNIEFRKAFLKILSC
Summary of the method: as §1

[5] = molecular target: serotoninergic 5-HT6 receptor (Homo sapiens, UniProt P50406); assay: Binding assay 5-HT6 (h), [3H]LSD, CHO cells; design: expressed in transfected cells; host or cells: CHO cells; conditions: read-out: 5-HT6
Sequence of serotoninergic 5-HT6 receptor (P50406 whole entry): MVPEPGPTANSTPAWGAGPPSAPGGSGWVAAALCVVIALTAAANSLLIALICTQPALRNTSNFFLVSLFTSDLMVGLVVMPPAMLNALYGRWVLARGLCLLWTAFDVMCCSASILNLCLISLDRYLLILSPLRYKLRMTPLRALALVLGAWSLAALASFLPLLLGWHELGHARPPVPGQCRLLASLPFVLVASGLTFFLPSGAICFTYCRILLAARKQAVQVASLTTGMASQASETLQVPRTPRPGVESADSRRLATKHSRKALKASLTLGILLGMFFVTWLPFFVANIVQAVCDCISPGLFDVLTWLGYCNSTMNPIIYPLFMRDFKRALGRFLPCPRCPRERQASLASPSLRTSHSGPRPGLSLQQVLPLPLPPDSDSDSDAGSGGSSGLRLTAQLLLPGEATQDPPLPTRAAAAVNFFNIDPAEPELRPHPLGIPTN
Summary of the method: as §1

Sequence of serotoninergic 5-HT2A receptor (P28223 whole entry): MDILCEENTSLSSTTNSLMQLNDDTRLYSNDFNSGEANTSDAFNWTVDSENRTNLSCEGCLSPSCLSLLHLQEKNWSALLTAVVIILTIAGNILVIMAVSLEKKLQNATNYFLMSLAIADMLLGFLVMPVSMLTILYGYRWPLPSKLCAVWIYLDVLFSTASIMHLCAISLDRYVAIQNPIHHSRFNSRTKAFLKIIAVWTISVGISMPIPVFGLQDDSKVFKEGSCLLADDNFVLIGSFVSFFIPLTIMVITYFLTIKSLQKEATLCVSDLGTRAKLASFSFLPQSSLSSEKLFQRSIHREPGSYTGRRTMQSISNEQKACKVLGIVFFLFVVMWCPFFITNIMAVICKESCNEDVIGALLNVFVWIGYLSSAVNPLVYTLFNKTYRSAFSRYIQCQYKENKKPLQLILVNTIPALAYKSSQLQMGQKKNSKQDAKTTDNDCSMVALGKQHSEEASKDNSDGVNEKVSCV

SMILES | inhibition at 1 µM [1] [%] | inhibition at 1 µM (dopaminergic D2 receptor) [%] | inhibition at 1 µM [2] [%] | inhibition at 1 µM [3] [%] | α1 [%] (adrenergic α1 receptor) | inhibition at 1 µM [4] [%] | inhibition at 1 µM (dopaminergic D3 receptor) [%] | inhibition at 1 µM [5] [%]
O=S(=O)(NCCCN1CCC(c2noc3cc(F)ccc23)CC1)c1ccc(F)cc1 [Compound 326, 4-Fluoro-N-[3-[4-(6-fluoro-1,2-benzoxazol-3-yl)piperidin-1-yl]propyl]benzenesulphonamide] | 96 | 109 | 94 | 19 | 101 | 59 | 99 | 94
O=S(=O)(NCCCN1CCC(c2noc3cc(F)ccc23)CC1)c1ccc(-c2ccccc2)cc1 [Compound 112, N-[3-[4-(6-Fluoro-1,2-benzoxazol-3-yl)piperidin-1-yl]propyl]-4-phenylbenzenesulphonamide] | 93 | 103 | 95 | -17 | 99 | 20 | 98 | 94
O=S(=O)(NCCCCN1CCC(c2noc3cc(F)ccc23)CC1)c1cccc(Cl)c1 [Compound 105, 3-Chloro-N-[4-[4-(6-fluoro-1,2-benzoxazol-3-yl)piperidin-1-yl]butyl]benzenesulphonamide] | 91 | 107 | 85 | -11 | 96 | 41 | 88 | 87
Cn1ccc2c(S(=O)(=O)NCCCCN3CCC(c4noc5cc(F)ccc45)CC3)cccc21 [Compound 310, N-[4-[4-(6-Fluoro-1,2-benzoxazol-3-yl)piperidin-1-yl]butyl]-1-methyl-indole-4-sulphonamide] | 99 | 96 | 89 | 57 | 107 | 91 | 97 | 89
COc1cccc(S(=O)(=O)NCCCCN2CCN(c3nsc4ccccc34)CC2)c1 [Compound 232, N-[4-[4-(1,2-Benzothiazol-3-yl)piperazin-1-yl]butyl]-3-methoxybenzenesulphonamide] | 100 | 92 | 89 | 13 | 94 | 89 | 89 | 76
O=S(=O)(NCCCCN1CCN(c2nsc3ccccc23)CC1)c1cccc(Cl)c1 [Compound 69, N-[4-[4-(1,2-Benzothiazol-3-yl)piperazin-1-yl]butyl]-3-chlorobenzenesulphonamide] | 92 | 106 | 96 | 6 | 94 | 80 | 77 | 88
O=S(=O)(NCCCCN1CCN(c2noc3ccccc23)CC1)c1cccc(Cl)c1 [Compound 85, N-[4-[4-(1,2-Benzoxazol-3-yl)piperazin-1-yl]butyl]-3-chlorobenzenesulphonamide] | 88 | 100 | 99 | 2 | 98 | 54 | 77 | 77
O=S(=O)(NCCCCN1CCC(c2noc3cc(F)ccc23)CC1)c1ccc(F)cc1 [Compound 294, 4-Fluoro-N-[4-[4-(6-fluoro-1,2-benzoxazol-3-yl)piperidin-1-yl]butyl]benzenesulphonamide] | 95 | 105 | 94 | -14 | 101 | 23 | 95 | 72
O=S(=O)(NCCCCN1CCC(c2noc3cc(F)ccc23)CC1)c1cccc(Br)c1 [Compound 109, 3-Bromo-N-[4-[4-(6-fluoro-1,2-benzoxazol-3-yl)piperidin-1-yl]butyl]benzenesulphonamide] | 93 | 100 | 92 | 15 | 101 | 86 | 99 | 84
Cn1ccc2cc(S(=O)(=O)NCCCN3CCC(c4noc5cc(F)ccc45)CC3)ccc21 [Compound 344, N-[3-[4-(6-Fluoro-1,2-benzoxazol-3-yl)piperidin-1-yl]propyl]-1-methyl-indole-5-sulphonamide] | 105 | 107 | 95 | 31 | 106 | 42 | 101 | 91
O=S(=O)(NCCCN1CCC(c2noc3cc(F)ccc23)CC1)c1ccc2c(c1)OCCO2 [Compound 355, N-[3-[4-(6-Fluoro-1,2-benzoxazol-3-yl)piperidin-1-yl]propyl]-2,3-dihydro-1,4-benzodioxine-6-sulphonamide] | 103 | 99 | 84 | 45 | 105 | 60 | 97 | 75
O=S(=O)(NCCCCN1CCN(c2cccc3c2OCCO3)CC1)c1cccc2ccccc12 [Compound 385, N-[4-[4-(2,3-Dihydro-1,4-benzodioxin-5-yl)piperazin-1-yl]butyl]naphthalene-1-sulphonamide] | 77 | 75 | 99 | 6 | 96 | 103 | 89 | 10
N#Cc1cccc(S(=O)(=O)NCCCCN2CCN(c3noc4ccccc34)CC2)c1 [Compound 282, N-[4-[4-(1,2-Benzoxazol-3-yl)piperazin-1-yl]butyl]-3-cyanobenzenesulphonamide] | 78 | 97 | 98 | 12 | 102 | 50 | 87 | 64
O=S(=O)(NCCCN1CCN(c2cccc3c2OCCO3)CC1)c1cccc(Cl)c1 [Compound 411, 3-Chloro-N-[3-[4-(2,3-dihydro-1,4-benzodioxin-5-yl)piperazin-1-yl]propyl]benzenesulphonamide] | 4 | 40 | 89 | 12 | 87 | 95 | 52 | 41
O=S(=O)(NCCCCN1CCC(c2noc3cc(F)ccc23)CC1)c1cnc2ccccn12 [Compound 322, N-[4-[4-(6-Fluoro-1,2-benzoxazol-3-yl)piperidin-1-yl]butyl]imidazo[1,2-a]pyridine-3-sulphonamide] | 94 | 96 | 95 | 16 | 103 | 43 | 93 | 62
